Key:
Histone deacetylase 2 [1] = biological target: T1, Histone deacetylase 2 (Homo sapiens, UniProt Q92769)
[2] = biological target: Histone deacetylase 3/Nuclear receptor corepressor 2 (HDAC3/NCoR2) (Homo sapiens, UniProt O15379); test: Inhibition of human full length recombinant HDAC3/ NcoR2 using p53 (379 to 382 residues) (RHKK(Ac)AMC) as substrate preincubated for 5 to 10 mins followed by substrate addition and measured after 2 hrs by fluorescence method; assay type: protein-complex assay
Histone deacetylase 7 [3] = biological target: T2, Histone deacetylase 7 (Homo sapiens, UniProt Q8WUI4); test: Inhibition of human full length recombinant HDAC7 using p53 (379 to 382 residues) Ac-LGK(TFA)-AMC as substrate preincubated for 5 to 10 mins followed by substrate addition and measured after 2 hrs by fluorescence method
T2 sequence (Q8WUI4 whole entry): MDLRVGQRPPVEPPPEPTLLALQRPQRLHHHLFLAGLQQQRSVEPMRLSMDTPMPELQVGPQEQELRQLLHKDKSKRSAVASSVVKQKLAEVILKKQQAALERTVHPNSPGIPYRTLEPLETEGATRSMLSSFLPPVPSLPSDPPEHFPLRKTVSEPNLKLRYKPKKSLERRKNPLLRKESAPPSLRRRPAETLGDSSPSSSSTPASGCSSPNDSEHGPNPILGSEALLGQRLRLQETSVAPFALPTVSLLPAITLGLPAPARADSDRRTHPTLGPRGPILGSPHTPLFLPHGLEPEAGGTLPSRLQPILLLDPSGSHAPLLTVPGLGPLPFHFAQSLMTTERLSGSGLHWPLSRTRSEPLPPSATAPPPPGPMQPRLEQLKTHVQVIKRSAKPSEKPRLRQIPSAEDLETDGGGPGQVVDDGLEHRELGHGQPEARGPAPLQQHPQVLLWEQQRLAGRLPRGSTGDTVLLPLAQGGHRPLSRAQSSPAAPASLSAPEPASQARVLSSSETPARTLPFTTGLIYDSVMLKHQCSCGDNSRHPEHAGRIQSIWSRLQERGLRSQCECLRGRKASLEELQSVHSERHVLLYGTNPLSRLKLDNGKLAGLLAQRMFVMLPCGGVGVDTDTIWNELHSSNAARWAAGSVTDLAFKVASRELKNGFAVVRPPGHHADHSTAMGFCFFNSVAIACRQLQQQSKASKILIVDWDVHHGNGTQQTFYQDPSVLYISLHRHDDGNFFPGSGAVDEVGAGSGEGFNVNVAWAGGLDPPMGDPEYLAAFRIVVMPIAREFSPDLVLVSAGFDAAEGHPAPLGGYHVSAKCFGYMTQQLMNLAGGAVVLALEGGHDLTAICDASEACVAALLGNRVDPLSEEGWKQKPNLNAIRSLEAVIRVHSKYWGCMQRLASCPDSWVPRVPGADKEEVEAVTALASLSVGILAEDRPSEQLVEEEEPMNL

Histone deacetylase 11 = biological target: T3, Histone deacetylase 11 (Homo sapiens, UniProt Q96DB2); test: Inhibition of human full length recombinant HDAC11 using p53 (379 to 382 residues) (RHKK(Ac)AMC) as substrate preincubated for 5 to 10 mins followed by substrate addition and measured after 2 hrs by fluorescence method
T3 sequence (Q96DB2 whole entry): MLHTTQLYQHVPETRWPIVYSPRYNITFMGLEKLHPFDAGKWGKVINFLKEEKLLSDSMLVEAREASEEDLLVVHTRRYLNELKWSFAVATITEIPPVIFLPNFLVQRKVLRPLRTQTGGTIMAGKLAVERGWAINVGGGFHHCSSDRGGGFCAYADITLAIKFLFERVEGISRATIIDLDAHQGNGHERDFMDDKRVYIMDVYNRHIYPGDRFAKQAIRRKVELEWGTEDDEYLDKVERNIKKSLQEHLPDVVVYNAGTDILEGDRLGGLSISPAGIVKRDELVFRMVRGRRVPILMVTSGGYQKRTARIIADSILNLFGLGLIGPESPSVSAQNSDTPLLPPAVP

Histone deacetylase 9 [4] = biological target: T4, Histone deacetylase 9 (Homo sapiens, UniProt Q9UKV0); test: Inhibition of human full length recombinant HDAC9 using p53 (379 to 382 residues) Ac-LGK(TFA)-AMC as substrate preincubated for 5 to 10 mins followed by substrate addition and measured after 2 hrs by fluorescence method
Histone deacetylase 5 [5] = biological target: T5, Histone deacetylase 5 (Homo sapiens, UniProt Q9UQL6); test: Inhibition of human full length recombinant HDAC5 using p53 (379 to 382 residues) Ac-LGK(TFA)-AMC as substrate preincubated for 5 to 10 mins followed by substrate addition and measured after 2 hrs by fluorescence method
Histone deacetylase 8 [6] = biological target: T6, Histone deacetylase 8 (Homo sapiens, UniProt Q9BY41); test: Inhibition of human full length recombinant HDAC8 using p53 (379 to 382 residues) (RHK(Ac)K(Ac)AMC as substrate preincubated for 5 to 10 mins followed by substrate addition and measured after 2 hrs by fluorescence method
T6 sequence (Q9BY41 whole entry): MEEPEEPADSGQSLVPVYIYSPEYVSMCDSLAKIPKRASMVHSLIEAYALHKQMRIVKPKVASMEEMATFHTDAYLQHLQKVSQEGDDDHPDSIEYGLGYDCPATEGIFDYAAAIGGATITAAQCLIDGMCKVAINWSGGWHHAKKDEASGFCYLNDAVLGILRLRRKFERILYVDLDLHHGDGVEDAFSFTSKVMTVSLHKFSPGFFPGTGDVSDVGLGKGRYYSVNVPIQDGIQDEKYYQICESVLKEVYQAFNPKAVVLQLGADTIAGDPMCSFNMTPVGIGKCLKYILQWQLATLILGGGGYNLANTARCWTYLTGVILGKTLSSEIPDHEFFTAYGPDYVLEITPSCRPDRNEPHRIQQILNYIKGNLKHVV

[7] = biological target: T7, Polyamine deacetylase HDAC10 (Homo sapiens, UniProt Q969S8); test: Inhibition of human full length recombinant HDAC10 using p53 (379 to 382 residues) (RHKK(Ac)AMC) as substrate preincubated for 5 to 10 mins followed by substrate addition and measured after 2 hrs by fluorescence method
T7 sequence (Q969S8 whole entry): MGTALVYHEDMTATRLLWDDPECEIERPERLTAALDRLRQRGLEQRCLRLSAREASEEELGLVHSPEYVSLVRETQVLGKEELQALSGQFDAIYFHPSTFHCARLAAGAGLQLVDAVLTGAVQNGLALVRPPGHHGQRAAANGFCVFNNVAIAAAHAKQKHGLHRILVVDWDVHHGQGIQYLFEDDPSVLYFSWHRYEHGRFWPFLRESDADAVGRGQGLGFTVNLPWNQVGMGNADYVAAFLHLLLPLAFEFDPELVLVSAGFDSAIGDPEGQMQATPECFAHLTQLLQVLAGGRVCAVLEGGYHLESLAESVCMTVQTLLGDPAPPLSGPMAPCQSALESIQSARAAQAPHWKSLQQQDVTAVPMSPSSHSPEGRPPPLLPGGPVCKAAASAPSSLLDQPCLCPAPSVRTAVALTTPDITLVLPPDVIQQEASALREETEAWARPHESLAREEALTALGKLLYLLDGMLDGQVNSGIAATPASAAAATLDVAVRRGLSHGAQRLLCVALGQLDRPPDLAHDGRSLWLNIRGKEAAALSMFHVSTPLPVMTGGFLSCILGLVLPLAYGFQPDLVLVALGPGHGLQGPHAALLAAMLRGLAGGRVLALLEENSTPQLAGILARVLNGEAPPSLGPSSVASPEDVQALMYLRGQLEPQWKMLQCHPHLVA

Histone deacetylase 1 = Histone deacetylase 1 (Homo sapiens, UniProt Q13547); test: Inhibition of HDAC1 (unknown origin) using carboxyfluorescein (FAM)-labeled acetylated peptide substrate preincubated for 3 hrs by microfluidic capillary electrophoresis
[8] = biological target: T8, Protein deacetylase HDAC6 (Homo sapiens, UniProt Q9UBN7); test: Inhibition of HDAC6 (unknown origin) using carboxyfluorescein (FAM)-labeled acetylated peptide substrate by microfluidic capillary electrophoresis
T8 sequence (Q9UBN7 whole entry): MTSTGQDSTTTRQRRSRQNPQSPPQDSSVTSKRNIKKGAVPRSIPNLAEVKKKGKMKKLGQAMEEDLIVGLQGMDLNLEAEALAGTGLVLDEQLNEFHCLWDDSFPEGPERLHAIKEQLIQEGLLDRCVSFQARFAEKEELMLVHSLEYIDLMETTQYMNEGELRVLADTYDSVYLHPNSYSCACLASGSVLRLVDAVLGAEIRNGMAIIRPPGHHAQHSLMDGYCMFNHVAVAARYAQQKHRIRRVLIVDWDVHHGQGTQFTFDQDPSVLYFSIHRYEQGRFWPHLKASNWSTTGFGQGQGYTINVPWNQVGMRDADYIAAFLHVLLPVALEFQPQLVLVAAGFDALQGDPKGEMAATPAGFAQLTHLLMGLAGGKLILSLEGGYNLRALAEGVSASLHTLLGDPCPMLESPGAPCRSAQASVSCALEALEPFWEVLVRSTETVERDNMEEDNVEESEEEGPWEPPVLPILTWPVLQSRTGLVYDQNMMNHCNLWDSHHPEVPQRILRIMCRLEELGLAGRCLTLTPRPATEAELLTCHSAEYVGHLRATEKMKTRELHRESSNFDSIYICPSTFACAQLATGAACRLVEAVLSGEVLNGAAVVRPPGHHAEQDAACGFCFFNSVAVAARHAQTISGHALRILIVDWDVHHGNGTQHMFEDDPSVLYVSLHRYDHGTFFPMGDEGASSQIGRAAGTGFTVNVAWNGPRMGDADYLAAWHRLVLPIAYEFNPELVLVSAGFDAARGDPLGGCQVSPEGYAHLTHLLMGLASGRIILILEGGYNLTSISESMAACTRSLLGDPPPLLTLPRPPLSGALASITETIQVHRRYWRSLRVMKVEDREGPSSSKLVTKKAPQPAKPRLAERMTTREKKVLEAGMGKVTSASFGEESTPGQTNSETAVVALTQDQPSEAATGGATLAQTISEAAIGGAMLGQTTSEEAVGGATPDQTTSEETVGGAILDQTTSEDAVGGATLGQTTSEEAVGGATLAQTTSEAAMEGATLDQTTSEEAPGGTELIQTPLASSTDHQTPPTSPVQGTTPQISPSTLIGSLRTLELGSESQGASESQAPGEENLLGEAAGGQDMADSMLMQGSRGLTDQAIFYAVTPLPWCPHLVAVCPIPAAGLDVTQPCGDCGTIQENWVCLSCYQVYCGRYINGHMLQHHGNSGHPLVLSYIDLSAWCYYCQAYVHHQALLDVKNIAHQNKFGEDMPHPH

Histone deacetylase 2 [9] = biological target: T1, Histone deacetylase 2; test: Inhibition of human HDAC2 expressed in Sf9 cells using carboxyfluorescein (FAM)-labeled acetylated peptide substrate preincubated for 3 hrs by microfluidic capillary electrophoresis
Histone deacetylase 4 = Histone deacetylase 4 (Homo sapiens, UniProt P56524); test: Inhibition of human HDAC4 expressed in baculovirus infected sf9 cells using carboxyfluorescein (FAM)-labeled acetylated peptide substrate by microfluidic capillary electrophoresis
Histone deacetylase 5 [10] = biological target: T5, Histone deacetylase 5; test: Inhibition of human HDAC5 using carboxyfluorescein (FAM)-labeled acetylated peptide substrate by microfluidic capillary electrophoresis
Histone deacetylase 9 [11] = biological target: T4, Histone deacetylase 9; test: Inhibition of C-terminal His-tagged human HDAC9 (604 to 1066 residues) expressed in baculovirus infected sf9 cells using carboxyfluorescein (FAM)-labeled acetylated peptide substrate by microfluidic capillary electrophoresis
Histone deacetylase 8 [12] = biological target: T6, Histone deacetylase 8; test: Inhibition of recombinant human C-terminal His-tagged HDAC8 expressed in baculovirus infected sf9 cells using carboxyfluorescein (FAM)-labeled acetylated peptide substrate by microfluidic capillary electrophoresis
Histone deacetylase 7 [13] = biological target: T2, Histone deacetylase 7; test: Inhibition of human N-terminal GST-tagged HDAC7 (518 to end residues) expressed in baculovirus infected sf9 cells using carboxyfluorescein (FAM)-labeled acetylated peptide substrate by microfluidic capillary electrophoresis
Homo sapiens [14] = species on record: Homo sapiens; test: Selectivity ratio of IC50 for human HDAC2 expressed in Sf9 cells to IC50 for HDAC6 (unknown origin)
Homo sapiens [15] = species on record: Homo sapiens; test: Selectivity ratio of IC50 for human N-terminal GST-tagged HDAC7 (518 to end residues) expressed in baculovirus infected sf9 cells to IC50 for HDAC6 (unknown origin)
Homo sapiens [16] = species on record: Homo sapiens; test: Selectivity ratio of IC50 for human HDAC5 to IC50 for HDAC6 (unknown origin)
Homo sapiens [17] = species on record: Homo sapiens; test: Selectivity ratio of IC50 for recombinant human C-terminal His-tagged HDAC8 expressed in baculovirus infected sf9 cells to IC50 for HDAC6 (unknown origin)
Homo sapiens [18] = species on record: Homo sapiens; test: Selectivity ratio of IC50 for human HDAC4 expressed in Sf9 cells to IC50 for HDAC6 (unknown origin)
[19] = biological target: T8, Protein deacetylase HDAC6; test: Inhibition of HDAC6 (unknown origin) using acetyl-lysine tripeptide substrate as substrate preincubated for 24 hrs followed substrate addition and shaken for 5 secs and measured over 30 mins
Homo sapiens [20] = species on record: Homo sapiens; test: Selectivity ratio of IC50 for human C-terminal His-tagged HDAC3 (1 to 428 residues)/human N-terminal GST-tagged NcoR2 (395 to 489 residues) expressed in sf9 cells to IC50 for HDAC6 (unknown origin)
Homo sapiens [21] = species on record: Homo sapiens; test: Selectivity ratio of IC50 for HDAC1 (unknown origin) to IC50 for HDAC6 (unknown origin)
Homo sapiens [22] = species on record: Homo sapiens; test: Selectivity ratio of IC50 for C-terminal His-tagged human HDAC9 (604 to 1066 residues) expressed in baculovirus infected sf9 cells to IC50 for HDAC6 (unknown origin)

T4 sequence (Q9UKV0 whole entry, the tested form may be a part): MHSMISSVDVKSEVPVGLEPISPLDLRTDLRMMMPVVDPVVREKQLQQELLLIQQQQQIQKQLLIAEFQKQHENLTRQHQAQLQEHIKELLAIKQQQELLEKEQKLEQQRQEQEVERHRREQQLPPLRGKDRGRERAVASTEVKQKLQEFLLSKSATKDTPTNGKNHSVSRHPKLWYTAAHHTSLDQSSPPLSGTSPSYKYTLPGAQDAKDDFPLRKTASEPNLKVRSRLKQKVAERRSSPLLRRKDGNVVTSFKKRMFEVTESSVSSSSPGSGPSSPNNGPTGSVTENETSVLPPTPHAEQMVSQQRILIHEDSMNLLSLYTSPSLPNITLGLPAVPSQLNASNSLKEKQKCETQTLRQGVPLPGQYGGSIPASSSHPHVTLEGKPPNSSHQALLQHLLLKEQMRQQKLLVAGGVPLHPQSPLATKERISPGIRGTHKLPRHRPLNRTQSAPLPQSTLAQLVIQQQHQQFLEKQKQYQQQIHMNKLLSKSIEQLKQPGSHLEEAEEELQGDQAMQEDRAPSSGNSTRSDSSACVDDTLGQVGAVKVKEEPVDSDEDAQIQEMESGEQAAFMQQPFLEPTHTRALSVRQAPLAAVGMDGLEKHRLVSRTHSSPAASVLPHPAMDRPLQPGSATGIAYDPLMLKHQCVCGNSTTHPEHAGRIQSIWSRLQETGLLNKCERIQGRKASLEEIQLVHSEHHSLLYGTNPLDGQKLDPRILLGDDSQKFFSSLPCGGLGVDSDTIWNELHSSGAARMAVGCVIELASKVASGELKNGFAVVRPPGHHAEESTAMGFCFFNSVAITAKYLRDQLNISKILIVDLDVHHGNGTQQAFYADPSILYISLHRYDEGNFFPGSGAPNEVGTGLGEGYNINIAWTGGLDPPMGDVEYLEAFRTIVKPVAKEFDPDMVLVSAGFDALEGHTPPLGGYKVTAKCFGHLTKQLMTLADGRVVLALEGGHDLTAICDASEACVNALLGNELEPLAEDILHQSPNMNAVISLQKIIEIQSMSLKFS
T5 sequence (Q9UQL6 whole entry, the tested form may be a part): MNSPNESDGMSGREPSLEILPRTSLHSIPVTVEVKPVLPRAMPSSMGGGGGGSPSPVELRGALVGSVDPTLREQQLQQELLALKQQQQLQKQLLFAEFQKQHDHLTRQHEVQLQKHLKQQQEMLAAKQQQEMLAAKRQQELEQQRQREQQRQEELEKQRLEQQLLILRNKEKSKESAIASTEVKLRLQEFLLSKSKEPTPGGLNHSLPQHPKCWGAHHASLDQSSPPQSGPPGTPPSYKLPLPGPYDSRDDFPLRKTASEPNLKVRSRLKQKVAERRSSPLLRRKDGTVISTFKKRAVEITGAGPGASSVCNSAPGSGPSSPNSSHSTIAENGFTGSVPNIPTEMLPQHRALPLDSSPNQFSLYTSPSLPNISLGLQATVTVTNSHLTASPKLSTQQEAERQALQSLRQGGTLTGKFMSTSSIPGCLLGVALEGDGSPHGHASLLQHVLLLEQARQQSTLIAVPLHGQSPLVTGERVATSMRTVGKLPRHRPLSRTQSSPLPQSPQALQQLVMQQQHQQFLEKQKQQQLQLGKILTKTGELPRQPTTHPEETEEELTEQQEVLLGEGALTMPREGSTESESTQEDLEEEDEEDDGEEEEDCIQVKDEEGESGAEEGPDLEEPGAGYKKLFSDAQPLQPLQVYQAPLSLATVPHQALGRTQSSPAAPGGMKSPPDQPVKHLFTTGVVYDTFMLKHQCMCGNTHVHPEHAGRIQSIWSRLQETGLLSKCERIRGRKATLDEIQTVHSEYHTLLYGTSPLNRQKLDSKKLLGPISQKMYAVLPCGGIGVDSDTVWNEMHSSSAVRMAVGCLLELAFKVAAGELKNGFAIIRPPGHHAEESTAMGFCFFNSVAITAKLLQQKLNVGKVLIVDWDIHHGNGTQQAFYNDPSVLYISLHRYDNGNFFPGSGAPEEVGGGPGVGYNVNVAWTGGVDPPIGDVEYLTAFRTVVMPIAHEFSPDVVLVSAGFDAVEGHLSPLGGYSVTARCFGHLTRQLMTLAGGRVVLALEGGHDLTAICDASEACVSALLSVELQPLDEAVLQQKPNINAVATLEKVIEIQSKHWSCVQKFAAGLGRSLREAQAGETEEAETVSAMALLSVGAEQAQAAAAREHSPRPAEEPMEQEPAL
T1 sequence (Q92769 whole entry, the tested form may be a part): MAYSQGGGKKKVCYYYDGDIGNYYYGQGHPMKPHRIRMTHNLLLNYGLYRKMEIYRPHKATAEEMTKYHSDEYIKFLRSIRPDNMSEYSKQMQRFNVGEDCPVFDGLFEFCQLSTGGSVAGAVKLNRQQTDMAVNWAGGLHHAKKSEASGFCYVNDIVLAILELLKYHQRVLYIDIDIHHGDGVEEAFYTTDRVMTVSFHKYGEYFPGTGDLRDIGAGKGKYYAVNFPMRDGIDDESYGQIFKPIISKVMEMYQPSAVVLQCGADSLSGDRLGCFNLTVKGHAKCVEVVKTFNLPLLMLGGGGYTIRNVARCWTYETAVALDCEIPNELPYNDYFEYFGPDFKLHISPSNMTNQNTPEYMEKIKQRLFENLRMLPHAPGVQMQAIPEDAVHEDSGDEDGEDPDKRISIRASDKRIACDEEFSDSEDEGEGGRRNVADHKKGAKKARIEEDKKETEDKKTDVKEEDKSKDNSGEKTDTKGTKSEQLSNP
Sequence of Histone deacetylase 1 (Q13547 whole entry): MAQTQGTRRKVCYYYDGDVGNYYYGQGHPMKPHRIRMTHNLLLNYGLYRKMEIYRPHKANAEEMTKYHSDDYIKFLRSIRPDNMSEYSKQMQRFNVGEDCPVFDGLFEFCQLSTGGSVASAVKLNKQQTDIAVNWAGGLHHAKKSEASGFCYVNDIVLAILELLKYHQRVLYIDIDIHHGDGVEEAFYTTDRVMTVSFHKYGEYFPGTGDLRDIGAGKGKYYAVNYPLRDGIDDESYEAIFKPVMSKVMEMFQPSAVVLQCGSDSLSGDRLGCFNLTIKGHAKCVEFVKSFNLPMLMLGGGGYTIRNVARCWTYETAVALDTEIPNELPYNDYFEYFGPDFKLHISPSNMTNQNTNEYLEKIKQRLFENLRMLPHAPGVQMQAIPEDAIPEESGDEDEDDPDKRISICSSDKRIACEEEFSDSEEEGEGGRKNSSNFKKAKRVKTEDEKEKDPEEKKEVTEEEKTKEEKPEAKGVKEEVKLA
Sequence of Histone deacetylase 4 (P56524 whole entry): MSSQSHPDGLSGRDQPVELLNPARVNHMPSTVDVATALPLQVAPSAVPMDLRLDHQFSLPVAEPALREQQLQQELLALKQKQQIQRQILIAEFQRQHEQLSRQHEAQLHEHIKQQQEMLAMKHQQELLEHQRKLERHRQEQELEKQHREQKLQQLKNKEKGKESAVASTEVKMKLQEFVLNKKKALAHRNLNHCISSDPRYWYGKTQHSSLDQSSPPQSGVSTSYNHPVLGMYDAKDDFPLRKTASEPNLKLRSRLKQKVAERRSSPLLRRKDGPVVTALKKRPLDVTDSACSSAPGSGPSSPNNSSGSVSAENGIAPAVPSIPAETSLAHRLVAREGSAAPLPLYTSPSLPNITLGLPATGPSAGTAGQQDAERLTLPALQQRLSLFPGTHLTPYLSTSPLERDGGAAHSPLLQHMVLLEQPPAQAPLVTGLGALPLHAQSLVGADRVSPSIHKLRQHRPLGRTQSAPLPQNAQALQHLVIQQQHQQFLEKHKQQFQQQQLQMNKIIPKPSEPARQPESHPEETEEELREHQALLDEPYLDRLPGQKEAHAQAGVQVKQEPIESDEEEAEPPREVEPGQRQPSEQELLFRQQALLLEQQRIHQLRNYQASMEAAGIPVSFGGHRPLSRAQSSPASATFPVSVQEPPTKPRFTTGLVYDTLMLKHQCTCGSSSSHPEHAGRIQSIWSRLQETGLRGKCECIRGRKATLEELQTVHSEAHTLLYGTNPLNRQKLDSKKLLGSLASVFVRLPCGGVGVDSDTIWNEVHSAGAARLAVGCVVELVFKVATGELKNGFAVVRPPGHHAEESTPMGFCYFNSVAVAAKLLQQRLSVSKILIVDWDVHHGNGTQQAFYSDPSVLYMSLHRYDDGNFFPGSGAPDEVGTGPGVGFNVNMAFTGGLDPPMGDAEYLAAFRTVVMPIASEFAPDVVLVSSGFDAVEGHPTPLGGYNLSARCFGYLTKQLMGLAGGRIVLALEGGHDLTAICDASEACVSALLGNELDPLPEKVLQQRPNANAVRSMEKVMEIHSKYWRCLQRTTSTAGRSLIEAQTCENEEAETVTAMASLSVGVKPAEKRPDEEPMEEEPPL

O=C(NO)c1ccc(CN2CCCc3cc(Cl)ccc32)cc1
IC50 (Histone deacetylase 2 [1]): 33 µM | IC50 [2]: 30 µM | IC50 (Histone deacetylase 7 [3]): 5 µM | IC50 (Histone deacetylase 11): 6 µM | IC50 (Histone deacetylase 9 [4]): 4 µM | IC50 (Histone deacetylase 5 [5]): 4 µM | IC50 (Histone deacetylase 8 [6]): 4 µM | IC50 [7]: 26 µM

CC(=O)Nc1ccc(C(=O)Nc2ccc(F)cc2N)cc1
IC50 (Histone deacetylase 1): 1 µM | IC50 [8]: > 30 µM | IC50 (Histone deacetylase 2 [9]): 1 µM | IC50 (Histone deacetylase 4): > 30 µM | IC50 (Histone deacetylase 5 [10]): > 30 µM | IC50 (Histone deacetylase 9 [11]): > 30 µM | IC50 (Histone deacetylase 8 [12]): > 30 µM | IC50 (Histone deacetylase 7 [13]): > 30 µM

O=C(NO)c1cnc(C2(c3ccccc3)CCC(F)(F)CC2)nc1
Ratio IC50 (Homo sapiens [14]): > 250 | Ratio IC50 (Homo sapiens [15]): > 250 | Ratio IC50 (Homo sapiens [16]): > 250 | Ratio IC50 (Homo sapiens [17]): > 250 | Ratio IC50 (Homo sapiens [18]): > 250 | IC50 [19]: 0.003 µM | Ratio IC50 (Homo sapiens [20]): > 250 | Ratio IC50 (Homo sapiens [21]): > 250 | Ratio IC50 (Homo sapiens [22]): > 250

Source: ChEMBL document CHEMBL4765362, “Thirty Years of HDAC Inhibitors: 2020 Insight and Hindsight” (J Med Chem, 2020)
